Measured values published in patent US12655116B2, “Substituted isophthalic acid diamides” (Bayer Aktiengesellschaft, priority 2020, dated 2026).

Key:
PHBPU [1] = assay: Post-emergence herbicidal action against PHBPU; assay type: in vivo, Pharbitis purpurea
In short: (§1)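 Post-emergence greenhouse test; one-leaf stage, 2–3 wk post-sowing, sandy loam. Foliar spray of WP/EC in water, 600–800 l/ha, +0.2% wetting agent. Visual % action at ~3 wk vs untreated (100% = plants dead).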

ABUTH [2] = assay: Post-emergence herbicidal action against ABUTH; assay type: in vivo, Abutilon theophrasti; settings: visual assessment about 3 weeks after treatment vs untreated controls
In short: as §1

ALOMY [3] = assay: Post-emergence herbicidal action against ALOMY; assay type: in vivo, Alopecurus myosuroides; settings: Alopecurus myosuroides, 504 h, visual assessment about 3 weeks after treatment vs untreated controls
In short: as §1

VERPE [4] = assay: Post-emergence herbicidal action against VERPE; assay type: in vivo, Veronica persica; settings: Veronica persica, 504 h
In short: as §1

ABUTH [5] = assay: Pre-emergence herbicidal action against ABUTH; assay type: in vivo, Abutilon theophrasti
In short: (§2)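 Herbicidal effect was assessed 3 weeks after treatment by visual comparison with untreated controls, 100% denoting dead plants. Aqueous WP or EC preparations had been applied at 600 to 800 l/ha with 0.2% wetting agent to the soil covering freshly sown seeds.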

VERPE [6] = assay: Pre-emergence herbicidal action against VERPE; assay type: in vivo, Veronica persica
In short: as §2

VIOTR [7] = assay: Post-emergence herbicidal action against VIOTR; assay type: in vivo, Viola tricolor
In short: as §1

DIGSA [8] = assay: Pre-emergence herbicidal action against DIGSA; assay type: in vivo, Digitaria sanguinalis
In short: as §2

ALOMY [9] = assay: Pre-emergence herbicidal action against ALOMY; assay type: in vivo, Alopecurus myosuroides; settings: pre-emergence
In short: as §2

PHBPU [10] = assay: Pre-emergence herbicidal action against PHBPU; assay type: in vivo, Pharbitis purpurea; settings: dosage 80 g/ha
In short: as §2

DIGSA [11] = assay: Post-emergence herbicidal action against DIGSA; assay type: in vivo, Digitaria sanguinalis
In short: as §1

POLCO = assay: Pre-emergence herbicidal action against POLCO; assay type: in vivo, Polygonum convolvulus
In short: as §2

MATIN [12] = assay: Post-emergence herbicidal action against MATIN; assay type: in vivo, Matricaria inodora
In short: as §1

LOLRI = assay: Pre-emergence herbicidal action against LOLRI; assay type: in vivo, Lolium rigidum; settings: 80 g/ha
In short: as §2

SETVI [13] = assay: Pre-emergence herbicidal action against SETVI; assay type: in vivo, Setaria viridis
In short: as §2

ECHCG [14] = assay: Post-emergence herbicidal action against ECHCG; assay type: in vivo, Echinochloa crus-galli; settings: dosage 20 g/ha
In short: as §1

AVEFA = assay: Pre-emergence herbicidal action against AVEFA; assay type: in vivo, Avena fatua; settings: 80 g/ha, pre-emergence
In short: as §2

SETVI [15] = assay: Post-emergence herbicidal action against SETVI; assay type: in vivo, Setaria viridis
In short: as §1

AMARE [16] = assay: Post-emergence herbicidal action against AMARE; assay type: in vivo, Amaranthus retroflexus; settings: 20 g/ha, visual assessment about 3 weeks after treatment, 100% = plants have died, 0% = like control plants
In short: as §1

ECHCG [17] = assay: Pre-emergence herbicidal action against ECHCG; assay type: in vivo, Echinochloa crus-galli
In short: as §2

VIOTR [18] = assay: Pre-emergence herbicidal action against VIOTR; assay type: in vivo, Viola tricolor
In short: as §2

AMARE [19] = assay: Pre-emergence herbicidal action against AMARE; assay type: in vivo, Amaranthus retroflexus
In short: as §2

MATIN [20] = assay: Pre-emergence herbicidal action against MATIN; assay type: in vivo, Matricaria inodora
In short: as §2

STEME = assay: Pre-emergence herbicidal action against STEME; assay type: in vivo, Stellaria media
In short: as §2

[21] = Tripleurospermum inodorum, 504 h, dosage 20 g/ha
[22] = Setaria viridis, 504 h, dosage 20 g/ha
[23] = 80 g/ha, scored visually after 3 weeks vs untreated controls (100% = plants have died, 0% = like control plants)

SMILES: CCNC(=O)c1c(C(F)(F)C(F)(F)F)ccc(C(=O)Nc2nnnn2C)c1Cl [Example 1-166]
- pest or weed control at 5 g/ha (PHBPU [1]; Ipomoea purpurea, 504 h, dosage 5 g/ha): 80%
- pest or weed control at 20 g/ha (PHBPU [1]; Ipomoea purpurea, 504 h, dosage 20 g/ha): 90%
- pest or weed control at 5 g/ha (ABUTH [2]; Abutilon theophrasti, 504 h, dosage 5 g/ha): 90%
- pest or weed control at 20 g/ha (ABUTH [2]; Abutilon theophrasti, 504 h, dosage 20 g/ha): 90%
- pest or weed control at 5 g/ha (ALOMY [3]; dosage 5 g/ha): 80%
- pest or weed control at 20 g/ha (ALOMY [3]; dosage 20 g/ha): 90%
- pest or weed control at 5 g/ha (VERPE [4]; 5 g/ha): 80%
- pest or weed control at 20 g/ha (VERPE [4]; 20 g/ha): 90%
- pest or weed control at 80 g/ha (ABUTH [5]; Abutilon theophrasti, 504 h, 80 g/ha, scored visually after 3 weeks vs untreated controls (100% = plants have died, 0% = like control plants)): 100%
- pest or weed control at 20 g/ha (ABUTH [5]; Abutilon theophrasti, 504 h, dosage 20 g/ha, scored visually after 3 weeks vs untreated controls, 100% = plants have died, 0% = like control plants, read-out: Pre-emergence action against ABUTH (herbicidal activity in percent)): 90%
- pest or weed control at 20 g/ha (VERPE [6]; Veronica persica, 504 h, dosage 20 g/ha): 80%
- pest or weed control at 80 g/ha (VERPE [6]; Veronica persica, 504 h, dosage 80 g/ha): 100%
- pest or weed control at 20 g/ha (VIOTR [7]; Viola tricolor, 504 h, 20 g/ha): 80%
- pest or weed control at 80 g/ha (DIGSA [8]; Digitaria sanguinalis, 504 h, dosage 80 g/ha): 90%
- pest or weed control at 80 g/ha (ALOMY [9]; Alopecurus myosuroides, 504 h, 80 g/ha, scored visually after 3 weeks vs untreated controls (100% = plants have died, 0% = like control plants)): 100%
- pest or weed control at 20 g/ha (ALOMY [9]; Alopecurus myosuroides, 504 h, 20 g/ha, scored visually after 3 weeks, 100% = plants have died, 0% = like control plants): 90%
- pest or weed control at 80 g/ha (PHBPU [10]; Ipomoea purpurea, 504 h): 80%
- pest or weed control at 5 g/ha (DIGSA [11]; Digitaria sanguinalis, 504 h, 5 g/ha): 90%
- pest or weed control at 20 g/ha (DIGSA [11]; Digitaria sanguinalis, 504 h, 20 g/ha): 90%
- pest or weed control at 20 g/ha (POLCO; Fallopia convolvulus, 504 h, dosage 20 g/ha): 100%
- pest or weed control at 80 g/ha (POLCO; Fallopia convolvulus, 504 h, dosage 80 g/ha): 100%
- pest or weed control at 5 g/ha (MATIN [12]; Tripleurospermum inodorum, 504 h, dosage 5 g/ha): 80%
- pest or weed control at 20 g/ha (MATIN [12]; [21]): 80%
- pest or weed control at 80 g/ha (LOLRI; Lolium rigidum, 504 h): 80%
- pest or weed control at 20 g/ha (SETVI [13]; [22]): 80%
- pest or weed control at 80 g/ha (SETVI [13]; Setaria viridis, 504 h, dosage 80 g/ha): 100%
- pest or weed control at 20 g/ha (ECHCG [14]; Echinochloa crus-galli, 504 h): 90%
- pest or weed control at 80 g/ha (AVEFA; Avena fatua, 504 h): 100%
- pest or weed control at 5 g/ha (SETVI [15]; Setaria viridis, 504 h, dosage 5 g/ha): 90%
- pest or weed control at 20 g/ha (SETVI [15]; [22]): 90%
- pest or weed control at 20 g/ha (AMARE [16]; Amaranthus retroflexus, 504 h): 90%
- pest or weed control at 20 g/ha (ECHCG [17]; Echinochloa crus-galli, 504 h, 20 g/ha): 90%
- pest or weed control at 80 g/ha (ECHCG [17]; Echinochloa crus-galli, 504 h, 80 g/ha): 100%
- pest or weed control at 20 g/ha (VIOTR [18]; Viola tricolor, 504 h, dosage 20 g/ha): 100%
- pest or weed control at 80 g/ha (VIOTR [18]; Viola tricolor, 504 h, dosage 80 g/ha): 100%
- pest or weed control at 20 g/ha (AMARE [19]; Amaranthus retroflexus, 504 h, 20 g/ha, scored visually after 3 weeks vs untreated controls, 100% = plants have died, 0% = like control plants): 100%
- pest or weed control at 80 g/ha (AMARE [19]; Amaranthus retroflexus, 504 h, 80 g/ha, scored visually after 3 weeks vs untreated controls, 100% = plants have died, 0% = like control plants): 100%
- pest or weed control at 20 g/ha (MATIN [20]; [21]): 100%
- pest or weed control at 80 g/ha (MATIN [20]; Tripleurospermum inodorum, 504 h, dosage 80 g/ha): 100%

SMILES: CCNC(=O)c1c(C(F)F)ccc(C(=O)Nc2nnnn2CC)c1C [Example 2-45]
- Post-emergence action against PHBPU in % (PHBPU [1]; dosage 20 g/ha): 80%
- Post-emergence action against ABUTH in % (ABUTH [2]; dosage 5 g/ha): 80%
- Post-emergence action against ABUTH in % (ABUTH [2]; dosage 20 g/ha): 80%
- Pre-emergence action against ABUTH (herbicidal activity) (ABUTH [5]; [23]): 100%
- Pre-emergence action against ABUTH (herbicidal activity in percent) (ABUTH [5]; dosage 20 g/ha, scored visually after 3 weeks vs untreated controls, 100% = plants have died, 0% = like control plants): 80%
- Pre-emergence action against VERPE in % (VERPE [6]; dosage 80 g/ha): 90%
- Post-emergence action against VIOTR in % (VIOTR [7]; 5 g/ha): 80%
- Post-emergence action against VIOTR in % (VIOTR [7]; 20 g/ha): 100%
- Pre-emergence action against STEME in % (STEME; dosage 20 g/ha): 90%
- Pre-emergence action against STEME in % (STEME; dosage 80 g/ha): 100%
- Pre-emergence action against DIGSA in % (DIGSA [8]; dosage 20 g/ha): 90%
- Pre-emergence action against DIGSA in % (DIGSA [8]; dosage 80 g/ha): 100%
- Pre-emergence action against ALOMY (herbicidal activity) (ALOMY [9]; [23]): 90%
- Pre-emergence action against PHBPU in % (PHBPU [10]): 80%
- Post-emergence action against DIGSA (DIGSA [11]; 20 g/ha): 80%
- Pre-emergence action against POLCO in % (POLCO; dosage 80 g/ha): 90%
- Post-emergence action against MATIN in % (MATIN [12]; dosage 20 g/ha): 80%
- Pre-emergence action against LOLRI in % (LOLRI): 80%
- Pre-emergence action against SETVI in % (SETVI [13]; dosage 80 g/ha): 100%
- Post-emergence action against ECHCG in % (ECHCG [14]): 80%
- Pre-emergence action against AVEFA in % (AVEFA): 100%
- Post-emergence action against SETVI in % (SETVI [15]; dosage 20 g/ha): 80%
- Post-emergence action at 20 g/ha against AMARE in % (AMARE [16]): 100%
- Pre-emergence action against ECHCG in % (ECHCG [17]; 80 g/ha): 100%
- Pre-emergence action against VIOTR in % (VIOTR [18]; dosage 20 g/ha): 90%
- Pre-emergence action against VIOTR in % (VIOTR [18]; dosage 80 g/ha): 100%
- Pre-emergence action against AMARE in % (AMARE [19]; 20 g/ha, scored visually after 3 weeks vs untreated controls, 100% = plants have died, 0% = like control plants): 100%
- Pre-emergence action against AMARE in % (AMARE [19]; [23]): 100%
- Pre-emergence action against MATIN in % (MATIN [20]; dosage 20 g/ha): 90%
- Pre-emergence action against MATIN in % (MATIN [20]; dosage 80 g/ha): 100%
